US20160090351A1, “INHIBITORS OF DEUBIQUITINATING PROTEASES” (BRANDEIS UNIVERSITY, priority 2013, published 2016)

What was measured:
UCH-L5, UCH-L3, UCH-L1 = assay: HA-Ub-VS activity profiling in cell lysates, UCH-Ls; assay type: biochemical, human; conditions: for HA-Ub-VS labeling of UCHL enzymes: 75 μM, 30 minutes preincubation
Experimental: HA-ubiquitin vinylsulfone (HA-Ub-VS) irreversibly labels DUBs by modifying the catalytic cysteine residue Inhibition of the DUB prevents HA-Ub-VS labeling and the band is. […] The interaction with UCHL1/3 is reversible.
Lysate labeling assay on untransfected cells (1.5 mg/mL) was run with the stated concentration of inhibitor (or 1% DMSO control) for between 19-60 mins. After this time HA-Ub-VS (1.5-0.7 μM) was added and incubated for 19 mins. After this time reaction mixture (9 μL) was removed and quenched in 2× (final concentration) reducing loading buffer. For recovery experiments, a lysate of 6 mg/mL was treated with saturating compound C14 (250 μM) and incubated for 40 mins. Afterward, the lysate was diluted to 0.6 mg/mL (final concentration of inhibitor 25 μM) in lysis buffer (final volume 100 μL), then HA-Ub-VS was added. Aliquots (15 μL) were removed at the stated time (5-119 mins) and immediately quenched in 2× (final concentration) reducing loading buffer. For all HA-Ub-VS experiments samples in loading buffer were heated only to 37° C. prior to loading on a gel. This assay is highly susceptible to concentration of lysate and HA-Ub-VS. Cell experiments were carried out as above with some modifications. For Cos-1 and MCF-7 cells, after trypsinization, media with compound was added to give a final concentration of compound equal to that used in the assay. Cell pellets were lysed on an ice/salt bath with a temperature of −5° C. and lysate was centrifuged for only 5 mins.
HA-Ub-VS is an irreversible inhibitor of DUBs that is widely used in activity profiling. If the DUB inhibitors react to form a thiocarbonylated enzyme as proposed (FIG. 29B), then HA-Ub-VS labeling will be blocked. Treatment of HEK 293T lysates with HA-Ub-VS produced the characteristic pattern of protein bands at 250, 150-100, 45, 38 and 36 kDa, generally ascribed to USP9x (292 kDa), USP19 (146 kDa), USP7/8 (128 and 127 kDa, respectively), USP28/15 (122 and 112 kDa, respectively), UCH-L5 (38 kDa), UCH-L3 (26 kDa) and UCH-L1 (25 kDa) as depicted in FIG. 31.
The effect of diphenylcarbonates on HA-Ub-VS labeling was assessed to investigate the selectivity of DUB inhibition. Lysates were preincubated with diphenyl carbonates (75 μM), then treated with HA-Ub-VS (FIG. 31A). […] These C17 and C22-sensitive DUBs are most likely USP9x, USP19, USP7/8 and UCHL5, based on molecular weight (FIGS. 31B and 38). The identity of USP7 was confirmed by immunoblotting (FIG. 38F). […] Similar behavior was observed on Cos-1 cell lysates (FIG. 38B).

[1] = tested on: ubiquitin-proteasome system; assay: GFP-G76V-Ub assay in HEK 293T cells; assay type: cell-based, human; conditions: diphenyl carbonates 100 μM, bortezomib 20 μM, G5 2 μM
Experimental: FIG. 32 depicts data showing that diphenyl carbonates inhibit DUBs in HEK 293T cells. A. Viability of HEK 293T cells assessed by the propidium iodide exclusion method: diphenyl carbonate (100 μM), bortezomib (V, 20 μM) and G5 (2 μM). N≧3, mean+/−s.d. B. HEK 293T cells were treated with the stated compounds (50 μM) for 2 h and then assayed for the accumulation of K48-linked Ub species. C. As in A, but K63-linked Ub was assayed. D. HEK 293T cells were treated with C14, C15, C17, C18 (100 μM) or DMSO for 2 hours, then harvested, lysed and treated with HA-Ub-VS. After 30 min, lysates were analyzed by SDS-PAGE and probed for HA, tubulin and actin. An intervening lane was removed for clarity. E. HEK 293T cells expressing Ub-G76V-GFP were treated with diphenyl carbonates (100 μM), bortezomib (20 μM) and G5 (2 μM). […] N>3, Mean+/−s.d. See also FIG. 39.
FACS was carried out on a […] FACS-Calibur. For HEK 293T and K562, cells were resuspended by repeated pipetting/agitation of the incubation media, followed by dilution into PBS. For Cos-1, MCF-7, and CHO cells, media was removed and trypsin was added. Harvested cells were placed in FACS buffer (0.5% FBS in PBS with 3 μg/mL propidium iodide) 30 s prior to analysis. All data were analyzed using FlowJo V10, from TreeStar (Ashland, Oreg.). Approximately 2500 cells were sorted per replicate. Cells were sorted by propidium iodide dye exclusion to give a “viable population”. GFP positive cells within this group were identified relative to untransfected controls. Then the geometric mean of the whole GFP positive population within the viable population was calculated. Typical transfection efficiencies for G76V ubiquitin were 60-70% for both Cos-1 and HEK 293T and 25-40% for CHO cells, based on GFP positive cells.
The activity of the diphenylcarbonates in the GFP-G76V-Ub assay, which monitors flux through the ubiquitin-proteasome system, was also investigated. The G76V mutation creates an unstable Ub fusion protein that is degraded in a proteasome dependent process. GFP fluorescence increased when HEK 293T cells expressing GFP-G76V-Ub were treated with the proteasome inhibitor bortezomib and decreased upon treatment with G5 (FIG. 39). This decrease has been attributed to increased flux through the ubiquitin-proteasome system triggered by the accumulation of HMW-Ub. […] Perhaps the inability of the diphenylcarbonates to inhibit UCH-L1/3 accounts for the stability of GFP-G76V-Ub. This selectivity might also explain the low cytoxicity of these compounds relative to G5.

Compound | HA-Ub-VS labeling of UCHL enzymes (UCH-L5, UCH-L3, UCH-L1; HEK 293T lysates) | GFP fluorescence [1] | HA-Ub-VS labeling of UCH-Ls (UCH-L5, UCH-L3, UCH-L1; HEK 293T lysates, preincubation with G5) | inhibition of UCH-L1/3/5, dose response (UCH-L5, UCH-L3, UCH-L1; below 50 μM)
NCc1ccc(OC(=O)Oc2ccc(Cl)cc2)cc1 [Compound C14, 4-(aminomethyl)phenyl(4-chlorophenol)carbonate] | relatively little effect on the UCHL enzymes | no change in fluorescence was observed |  | 
O=C1/C(=C/c2ccc([N+](=O)[O-])cc2)CS(=O)(=O)C/C1=C\c1ccc([N+](=O)[O-])cc1 [Compound G5, reference compound] |  | decreased | UCH-L1 but not UCH-L3 | 
NCc1ccc(OC(=O)Oc2ccc3ccccc3c2)cc1 [Compound C17] | relatively little effect on the UCHL enzymes | no change in fluorescence was observed |  | little inhibition of UCH-L1/3/5 was observed below 50 μM
NCc1ccc(OC(=O)Oc2cccc3ccccc23)cc1 [Compound C18] | relatively little effect on the UCHL enzymes | no change in fluorescence was observed |  | 
NCc1ccc(OC(=O)Oc2ccc(Br)cc2)cc1 [Compound C15, 4-(aminomethyl)phenyl(4-bromophenyl)carbonate] | relatively little effect on the UCHL enzymes | no change in fluorescence was observed |  | 
